Counter-ions that a name gives are not always drawn. Like-named read-outs stand apart in the source and are kept apart here. Bridge positions count the residues as written; N and C are the ends. Square brackets hold non-standard residues; d marks the D form. Peptide text beside a SMILES is read from it. * marks the point of attachment. X1 = CC[C@H](C)CCCCC(=O)*; Dab = NCC[C@H](N)C(=O)O
How the values were obtained:
[1] = system: A. baumannii (CS01); assay: Neutropenic mouse thigh infection model, bacterial counts after PMB; format: in vivo, Acinetobacter baumannii
Method: A clinical strain of A. baumannii (CS01), isolated from a patient with a meningitis (Seville, Spain) before treatment with CST, was used during this study ([López-Rojas et al., 2013]). Before each experiment, the strain was cultured in 5 ml of cation adjusted Muller-Hinton broth II (MHB) (Biomérieux, Marcy-l’Etoile, France) and incubated overnight at 37 ± 2°C with constant shaking (150–170 rpm). This overnight suspension was diluted 1:50 in MHB and was incubated with constant shaking at 35°C during 2 h until an OD600nm of 0.26 was achieved (Ultrospec10, Biochrom Ltd., Cambridge, United Kingdom), corresponding to a bacterial count of 10^8 CFU/ml in exponential growth phase. The bacterial suspension was centrifuged (3,000 rpm, 6 min), broth was removed and replaced by the same volume of sterile saline solution. This suspension was then diluted to obtain inocula of 10^7 and 10^6 CFU/ml. Samples of the inoculation solutions were serially diluted on saline, plated on Muller-Hinton agar plates (Biomérieux, Marcy-l’Etoile, France) and incubated overnight at 37°C.
Animal experiments were carried out according to the EC Directive 2010/63/EU. They were approved by the local ethics committee (COMETHEA) and registered by the French Ministry of Higher Education and Research (approval numbers: 2019022216097190 and 2017072415099072). Five-week-old male Swiss RjOrl mice (n = 296) weighing 34 ± 2 g (mean ± standard deviation [SD]) were obtained from Janvier Labs (Saint-Berthevin, France). All animals were acclimatized in ventilated racks in a temperature-regulated environment with a 12 h light-dark cycle, with free access to food and water for a minimum of 5 days before the beginning of the experiment. Neutropenia was induced by intraperitoneal administrations of cyclophosphamide at 150 and 100 mg/kg, 4 days and 1 day prior to experimental infection, respectively ([Landersdorfer et al., 2018]). Thigh infection was induced by intramuscular administration of 0.1 ml of a bacterial suspension of 10^6, 10^7 or 10^8 CFU/ml (corresponding to 10^5, 10^6 and 10^7 CFU/thigh, respectively), into one of the posterior thigh muscles. Thus, three groups of mice were distinguished according to the inoculum injected (n = 76, 146 and 74 for 10^5, 10^6 and 10^7 CFU/thigh, respectively) Each group was divided into two subgroups: treated (n = 48, 116 and 45 for 10^5, 10^6 and 10^7 CFU/thigh, respectively) and control mice (n = 28, 30 and 29 for 10^5, 10^6 and 10^7 CFU/thigh, respectively).
Two hours after bacterial inoculation, mice received either a single subcutaneous administration of PMB (1, 15 or 40 mg/kg for mice infected with 10^6 and 10^7 CFU/thigh, and 15 or 40 mg/kg for mice infected with 10^5 CFU/thigh), or a subcutaneous administration of saline solution (control group).
Mice (n = 240) were sacrificed at 6 different time points: just prior to the start of the therapy (0 h) and at 2, 4, 6, 8 and 24 h after PMB administration. A total of 3-6 mice were sacrificed at each time point. Thigh muscles were collected and homogenized with 1 ml of sterile saline solution using potters Elvehjem-type tissue grinders (Thermo Fischer Scientific, Illkirch-Graffenstaden, France). Homogenates were serially diluted in saline, plated on Muller-Hinton agar plates and incubated overnight at 37°C. Bacterial colonies were counted and expressed as log10 numbers of CFU/thigh. The lower limit of quantification (LOQ) was set to 800 CFU/ml corresponding to 2.9 log10 CFU/thigh.

[2] = system: A. baumannii; conditions: ref Akrong et al., 2021, cited from earlier work; for increase of in vitro IK-HL: starting inoculum from 10^5 to 10^7 CFU/ml
Description: High bacterial counts may alter antibiotherapy success due to an inoculum effect (IE) ([Chastre and Fagon, 2002]; [Koenig and Truwit, 2006]; [Kalanuria et al., 2014]), corresponding to a reduction of the antibiotic activity as bacterial count increases ([Harada et al., 2014]; [Lenhard and Bulman, 2019]). This phenomenon has been described in vitro for ß-lactam antibiotics used against ß-lactamases-producing bacteria such as Escherichia coli and Klebsiella pneumoniae ([Bedenić et al., 2001]; [Harada et al., 2014]; [Smith and Kirby, 2018]; [Lenhard and Bulman, 2019]). It has also been reported i ... || An innovative aspect of this study was the refinement of a PKPD model, based on the model developed after in vitro TK experiments conducted with A. baumannii and PMB ([Akrong et al., 2021]). […] The different growth behavior between in vitro and in vivo has been associated in literature ... || In both in vitro and in vivo PKPD models, a decrease in PMB killing effect was related to the baseline inoculum and was modeled either as a decrease of the in vivo PMB killing rate constant (kslope) or as an increase of the in vitro half-maximal effective concentration of PMB (EC50), making PMB IE difficult to compare between in vitro and in vivo. In vivo IK-HL were derived from Equation 5 for each starting inoculum and various PMB concentrations to better illustrate the consequences of IE on PMB activity (Table 3).

[3] = ultracentrifugation, ref Landersdorfer et al., 2018, cited from earlier work
Description: This discrepancy may be explained by differences in methodology. We used ultra-filtration after correction for non-specific adsorption on membranes to determine unbound fraction individually in infected mice, whereas the previous study used ultracentrifugation and pooled plasma sampled drawn from infected mi ...

CC[C@H](C)CCCCC(=O)N[C@@H](CCN)C(=O)N[C@H](C(=O)N[C@@H](CCN)C(=O)N[C@H]1CCNC(=O)[C@H]([C@@H](C)O)NC(=O)[C@H](CCN)NC(=O)[C@H](CCN)NC(=O)[C@H](CC(C)C)NC(=O)[C@@H](Cc2ccccc2)NC(=O)[C@H](CCN)NC1=O)[C@@H](C)O [PMB, Polymyxin B sulfate] (X1-[Dab]T[Dab][Dab][Dab][dF]L[Dab][Dab]T; lactam 4-C)
efficacy of PMB ([1]; 15 mg/kg SC, two highest inocula (10^6 and 10^7 CFU/thigh)): moderate efficacy | bacterial load reduction ([1]; 24 h after 15 mg/kg PMB SC, inoculum 10^5 CFU/thigh): 2.6 ± 1.2 log10 CFU/thigh | bacterial load reduction ([1]; 24 h after 40 mg/kg PMB SC, inoculum 10^5 CFU/thigh): 2.5 ± 2.3 log10 CFU/thigh | bacterial load reduction ([1]; 24 h after 40 mg/kg PMB SC, inoculum 10^6 CFU/thigh): 3.5 ± 0.9 log10 CFU/thigh | bacterial load reduction ([1]; 24 h after 40 mg/kg PMB SC, inoculum 10^7 CFU/thigh): 2.1 ± 1.4 log10 CFU/thigh | bacterial counts compared with control group ([1]; PMB 1 mg/kg single SC dose, data not shown): no differences in bacterial counts with the control group | in vitro IK-HL ([2]; PMB 0.25 mg/L, starting inoculum 10^5 CFU/ml): 10 min | in vitro IK-HL ([2]; PMB 0.25 mg/L, starting inoculum 10^7 CFU/ml): 24 min | increase of in vitro IK-HL ([2]; PMB 0.25 mg/L): 140% | in vitro IK-HL ([2]; PMB 4 mg/L, starting inoculum 10^5 CFU/ml): 5 min | in vitro IK-HL ([2]; PMB 4 mg/L, starting inoculum 10^7 CFU/ml): 8 min | increase of in vitro IK-HL ([2]; PMB 4 mg/L): 60% | increase of the PMB concentration to reach 50% of maximal effect (EC50) ([2]; initial inoculum increased from 10^5 to 10^8 CFU/ml, static time-kill): 17 fold | plasma protein binding ([3]; mouse plasma, pooled plasma spiked with PMB): ~90% | unbound fraction ([3]; pooled plasma from infected mice spiked with PMB): 0.086

Source: article PMC8966651, “PKPD Modeling of the Inoculum Effect of Acinetobacter baumannii on Polymyxin B in vivo” (Frontiers in Pharmacology, 2022)
